Values of other authors in patent publication US20070197453A1, “Compositions and methods for treatment of disorders of protein aggregation” (priority 2006, published 2007).

System: neurons
Details: cited from earlier work

## OC1C(O)C(O)C(O)C(O)C1O (stereo not shown) [chiro-inositol, chiro-cyclohexanehexol, reference compound]
  activity against synthetic Aβ42 neurotoxicity: inactive
